We go through one compound from US12576097B2, “Anti-tumor effective component of Hedyotis diffusa, preparation method therefor and use thereof” (Guangdong New Ear Life Technology Co., Ltd., priority 2020, dated 2026).

Marks after values point to notes of the source that are not given here.

The subject of experiment [1] is Solid tumor cell line S180. Put plainly: In-vivo anti-tumor experiment of E-6-O-(p-coumaroyl)scandoside methyl ester and its metabolite p-coumaric acid (S180 tumor). Details: species or system ICR mice. The settings on record: 10 mg/kg by gavage, 9 days. Here is the method:
The experimental instruments were placed in a clean table and sterilized for about 30 min by turning on a UV lamp. The mice that were injected with ascites (about one week) were sacrificed by cervical dislocation, and abdomens of the mice were wiped with an alcohol swab. A 20 ml syringe was selected to suck the ascites (milky white is preferred) from the mice. The sucked ascites were placed in a sterile vial, and the vial was placed in a small box with ice. A certain amount of ascites was sucked onto a counting plate and placed under a microscope for counting, and the number of the cells was 10^7 as a base for tumor inoculation (1:2) and passage (1:5).
The adaptively fed ICR class II male mice were taken, and wiped with an alcohol swab on the armpit areas of the right forelimbs. The axillary cavities of the right forelimbs of the mice were inoculated with diluted mice ascite cell (10^7 cells) suspension at 0.2 ml per mouse. After tumor inoculation, the mice were fed and watered freely. One hour later, the drug was administered by gavage.
30 ICR class II male mice with a weight of 18-22 g were used. The mice were adaptively fed for four days under the conditions of the item 2.2 before the experiment. After four days, the mice were weighed and their autonomy was measured. The ICR mice were randomly divided into three groups, namely: a model group, methyl ester 10, p-coumaric acid 10, 10 mice in each group. Each mouse was inoculated with S180 tumor according to the method of the item 2.3, and the drug was administered by gavage after inoculation.
The appropriate amount of test samples were weighed precisely and prepared into test sample solutions having the desired concentrations by using a 5 vol % ethanol aqueous solution as a solvent, i.e.: E-6-O-(p-coumaroyl)scandoside methyl ester of 10 mg/kg; p-coumaric acid of 10 mg/kg. […] The blank group was given a solvent, the positive drug control group was given the cyclophosphamide solution, and the other groups were given the corresponding drugs and doses. Each mouse was administered by gavage at a dose of 0.2 ml/10 g. The mice were fed at 3 g/mouse and ingested water and food freely during the administration period. All mice were continuously administered for 9 days and sacrificed by decapitation on day 10. Blood, tumor, liver, spleen and thymus of the mice were collected. The blood obtained was placed in a low-temperature environment and sent out for blood check. The weight of the tumor, liver, spleen and thymus and the size of the tumor were recorded.
The recorded results were expressed as mean plus or minus standard deviation (X±SD), and the data were analyzed by using statistical software SPSS 11.5 software.

Experiment [2] deals with human liver cancer Hep-G2 cells. Put plainly: Inhibition rate on human liver cancer Hep-G2 cells (CCK-8). Format: cell-based. Conditions: 3 mg/mL drug solutions, 24 h. The method, then: A cryopreservation tube containing liver cancer Hep-G2 cells was taken out from a liquid nitrogen tank, quickly placed in a water bath at 38-39° C., and continuously shaken to be fully thawed within 1 min. The cryopreservation tube was centrifuged at 800 r/min for 9 min, and sprayed with 75% alcohol on the outside thereof, and then put into a ultra-clean table. The resulting supernatant was sucked and discarded. 1 ml of DMEM complete medium was added, and a mixture of the cells and the DMEM complete medium was blown evenly, and then the cells were transferred to a 25 ml culture dish. 6-8 ml of DMEM complete medium was added, and a mixture of the cells and the DMEM complete medium was gently blown evenly, and put into a constant temperature incubator at 37° C. with 5% CO2.
The old medium in the item 2.1 was sucked out. 2 ml of PBS buffer solution was added, and the cells were washed by gently shaking the culture flask. The PBS buffer solution was sucked out to remove the loose, dead and senescent cells and their metabolic wastes, and the cells were washed for 2-3 times. 2 ml of trypsin was added, and the culture dish was gently shaken for 30 s. After the trypsin was sucked out, the culture dish was put into the incubator for full digestion for 3 min, and 2 ml of fresh DMEM complete culture was added. The cells were gently blown and dispersed into individual cells under a microscope, and then 6-8 ml of fresh DMEM complete medium was added and the cells were incubated in a constant temperature incubator.
2 mL trypsin was added into the cells cultured in the item 2.2 in the logarithmic growth phase and the cells were digested for 30 s. After the trypsin was sucked out, the culture dish was placed into the incubator for full digestion for 3 min, and 2 mL of fresh medium was added. The cells were gently blown to disperse the cells into individual cells under the microscope. 10 μL of cell suspension and 10 μL of 0.4% Trypan blue staining solution were mixed well to fully stain the cells. 10 μL of the stained cell suspension was added to a cell counting plate, and the number of cells was counted by a fully automatic cell counter. The cell suspension was diluted to 2×10^5 cells/mL with a DMEM complete medium. 100 μL of cell suspension was sucked with a multichannel pipette and seeded into a 96-well plate and incubated in a constant temperature incubator at 37° C. with 5% CO2 for 24 h.
30 mL of DMEM complete medium was accurately measured, 30 μL of DMSO was added, and uniform mixing was conducted to prepare 0.1% DMSO medium. […] The kaempferol solution and the methyl ester solution having the above concentrations were uniformly mixed to prepare drug solutions having the desired ratio based on the mass ratio of kaempferol to methyl ester being 1:1, 1:2, 1:3, 1:4, 1:5, 5:1, 4:1, 3:1 and 2:1, 400 μL of each drug solution. 1 mg/mL of 5-fluorouracil solution was diluted to a concentration of 800, 600, 400, 200, 100, 50, 25 μg/mL, respectively, 400 μL of each drug solution.
The old medium in the 96-well plate in the item 2.3 was sucked out, and 100 μL of PBS buffer solution was added to each well to remove the loose, dead and senescent cells and their metabolic wastes. After that, the PBS buffer solution was sucked out. 100 μL of the prepared drug solution was added to each well, 3 wells in parallel. A negative control was set up, in which an equal volume of DMEM complete medium containing 0.1 vol % DMSO was added to each well, 3 wells in parallel. A blank control was a DMEM complete medium containing 0.1 vol % DMSO free of cells, 3 wells in parallel. The cells were incubated for 24 h in a constant temperature incubator at 37° C. with 5% CO2.
The DMEM complete medium containing 0.1 vol % DMSO in the drug solutions and negative control in the 96-well plate in the item 2.5 were sucked out. […]

Take `COC(=O)C1=COC(O[C@@H]2O[C@H](CO)[C@@H](O)[C@H](O)[C@H]2O)C2C(CO)=CC(OC(=O)/C=C/c3ccc(O)cc3)C12` (some centres unmarked) [Methyl ester, E-6-O-(p-coumaroyl)scandoside methyl ester]: in experiment [1] (S180 tumor-bearing ICR mice), the “relative tumor weight mean ± SD” value is 4.65 ± 3.29* 10^−2. The inhibition rate was determined as 36.59% in experiment [1] (vs model group), 7.558% in experiment [2] (1st measurement), 5.565% in experiment [2] (2nd measurement) and 7.273% in experiment [2] (3rd measurement).
